Assay results taken from paper PMC3268775 (Journal of the American Chemical Society, 2012).

B1: wild type α2: β2 complex: E. coli class Ia ribonucleotide reductase (protein, UniProt P00452 1-761; P69924 2-376, looked up)
Ribonucleoside-diphosphate … 1: MNQNLLVTKRDGSTERINLDKIHRVLDWAAEGLHNVSISQVELRSHIQFYDGIKTSDIHETIIKAAADLISRDAPDYQYLAARLAIFHLRKKAYGQFEPPALYDHVVKMVEMGKYDNHLLEDYTEEEFKQMDTFIDHDRDMTFSYAAVKQLEGKYLVQNRVTGEIYESAQFLYILVAACLFSNYPRETRLQYVKRFYDAVSTFKISLPTPIMSGVRTPTRQFSSCVLIECGDSLDSINATSSAIVKYVSQRAGIGINAGRIRALGSPIRGGEAFHTGCIPFYKHFQTAVKSCSQGGVRGGAATLFYPMWHLEVESLLVLKNNRGVEGNRVRHMDYGVQINKLMYTRLLKGEDITLFSPSDVPGLYDAFFADQEEFERLYTKYEKDDSIRKQRVKAVELFSLMMQERASTGRIYIQNVDHCNTHSPFDPAIAPVRQSNLCLEIALPTKPLNDVNDENGEIALCTLSAFNLGAINNLDELEELAILAVRALDALLDYQDYPIPAAKRGAMGRRTLGIGVINFAYYLAKHGKRYSDGSANNLTHKTFEAIQYYLLKASNELAKEQGACPWFNETTYAKGILPIDTYKKDLDTIANEPLHYDWEALRESIKTHGLRNSTLSALMPSETSSQISNATNGIEPPRGYVSIKASKDGILRQVVPDYEHLHDAYELLWEMPGNDGYLQLVGIMQKFIDQSISANTNYDPSRFPSGKVPMQQLLKDLLTAYKFGVKTLYYQNTRDGAEDAQDDLVPSIQDDGCESGACKI
Ribonucleoside-diphosphate … 2: AYTTFSQTKNDQLKEPMFFGQPVNVARYDQQKYDIFEKLIEKQLSFFWRPEEVDVSRDRIDYQALPEHEKHIFISNLKYQTLLDSIQGRSPNVALLPLISIPELETWVETWAFSETIHSRSYTHIIRNIVNDPSVVFDDIVTNEQIQKRAEGISSYYDELIEMTSYWHLLGEGTHTVNGKTVTVSLRELKKKLYLCLMSVNALEAIRFYVSFACSFAFAERELMEGNAKIIRLIARDEALHLTGTQHMLNLLRSGADDPEMAEIAEECKQECYDLFVQAAQQEKDWADYLFRDGSMIGLNKDILCQYVEYITNIRMQAVGLDLPFQTRSNPIPWINTWLVSDNVQVAPQEVEVSSYLVGQIDSEVDTDDLSNFQL

Legend:
pKa of [Re]–F3Y–βC19 = format: physicochemical; details: pH 8.3
[1] = pH 8.3; cited from earlier work
α2: β2 complex = details: cited from earlier work

Molecule | F3Y deprotonated (pKa of [Re]–F3Y–βC19) | reduction potential of F3Y above tyrosine [1] | baseline catalytic turnover (α2: β2 complex) [s⁻¹]
N[C@@H](Cc1c(F)cc(O)c(F)c1F)C(=O)O [F3Y, 2,3,6-trifluorotyrosine] | ~ 94% | ~ 180 mV | –
B1 | – | – | 2 to 10
